Experimental data from patent publication US12226401B2, “Molecular genetic approach to treatment and diagnosis of alcohol and drug dependence” (priority 2010, dated 2025).

Tested on: alcohol dependent individuals
Assay: Randomized, double-blind, placebo-controlled, 12-week clinical trial of ondansetron vs placebo in alcohol dependent individuals by genotype: drinks per drinking day (DDD)
Format: in vivo, human
Settings: for Least Squares Mean of Drinks per Drinking Days, Estimated Mean: Table 4B; for Least Squares Mean Difference, Drinks per Drinking Days, OND vs. Placebo: all patients (treatment main effect); for Log mean Drinks/Drinking Day: natural log
Procedure: Two hundred and seventy eight male and female alcohol dependent individuals were entered into a randomized, double-blind, placebo-controlled, 12-week clinical trial. These individuals were divided into TT vs. […] The polymorphisms in 3''-UTR region of a gene may affect mRNA expression levels by altering their stability. […] Data was transformed to its natural log to correct for skewness. […] In total, ten SNPs in 5HT3a and nine SNPs in 5HT3b genes were analyzed in this study: […]

Cc1nccn1CC1CCc2c(c3ccccc3n2C)C1=O (stereo not drawn) [ondansetron, 9-methyl-3-[(2-methyl-1H-imidazol-1-yl)methyl]-1,2,3,9-tetrahydrocarbazol-4-one]
Least Squares Mean, Drinks per Drinking Days (RS17614942 CC): 6.03
Least Squares Mean, Drinks per Drinking Days (RS17614942 CC/AA): 6.09
Estimate, OND vs. Placebo, drinks per drinking days (DDD) (TT + AA (RS1042173, RS1176719)): −7.12 DDD
Estimate, OND vs. Placebo, drinks per drinking days (DDD) (TT + AC (RS1042173, RS17614942)): −3.37 DDD
Estimate, OND vs. Placebo, drinks per drinking days (DDD) (TT + AG (RS1042173, RS1150226)): −2.00 DDD
Estimate, OND vs. Placebo, drinks per drinking days (DDD) (TT + AG + AC (RS1042173, RS1150226, RS17614942)): −2.24 DDD
Estimate, OND vs. Placebo, drinks per drinking days (DDD) (TT + GG (RS1042173, RS1176713)): −6.42 DDD
Estimate, OND vs. Placebo, drinks per drinking days (DDD) (TT or AA or AC (RS1042173, RS1176719, RS17614942)): −1.08 DDD
Estimate, OND vs. Placebo, drinks per drinking days (DDD) (TT or AC (RS1042173, RS17614942)): −1.07 DDD
Estimate, OND vs. Placebo, drinks per drinking days (DDD) (TT or AG (RS1042173, RS1150226)): −1.02 DDD
Estimate, OND vs. Placebo, drinks per drinking days (DDD) (TT or AG or AC (RS1042173, RS1150226, RS17614942)): −0.99 DDD
Estimate, OND vs. Placebo, drinks per drinking days (DDD) (TT or AG or GG (RS1042173, RS1150226, RS1176713)): −1.12 DDD
Estimate, OND vs. Placebo, drinks per drinking days (DDD) (TT or GG (RS1042173, RS1176713)): −1.02 DDD
Estimate, OND vs. Placebo, drinks per drinking days (DDD) (TT or GG or AC (RS1042173, RS1176713, RS17614942)): −1.12 DDD
Least Squares Mean Difference, Estimated Mean Difference, AG vs. GG/AA (Table 3G, among OND-treated subjects, AG vs. GG/AA genotype): −1.90
Least Squares Mean of Drinks per Drinking Days, Estimated Mean (Others (AA/GG and AA/CC), n = 112): 6.12
Least Squares Mean of Drinks per Drinking Days, Estimated Mean (RS1150226 AG or RS17614942 AC carriers, n = 23): 4.19
Least Squares Mean of Drinks per Drinking Days, Estimated Mean (all OND subjects, RS1150226 (AG) or RS17614942 (AC) analysis): 5.16
Least Squares Mean Difference between Treatment and Placebo, Estimated Mean Difference (Table 4C, OND vs. Placebo among AG or/and AC (RS1150226 AG, RS17614942 AC)): −2.12
Least Squares Mean Difference between Treatment and Placebo, Estimated Mean Difference (Table 4C, OND vs. Placebo, all genotypes (main effect)): −0.99
Least Squares Mean Difference, Estimated Mean Difference, (AG or AC) vs. Others (Table 4C, among OND-treated subjects, (AG or AC) vs. Others): −1.91
Least Squares Mean, Drinks per Drinking Days (all OND patients, model Comb (LL + TT or AC or AG) vs Others): 5.32
Least Squares Mean, Drinks per Drinking Days (all OND patients, model RS1150226 (GG, AG/AA)): 5.15
Least Squares Mean, Drinks per Drinking Days (all OND patients, model RS1150226 (GG/AA, AG)): 5.13
Least Squares Mean, Drinks per Drinking Days (all OND patients, model RS17614942 (CC, AC/AA)): 4.96
Least Squares Mean, Drinks per Drinking Days (all OND patients, model RS17614942 (CC/AA, AC)): 4.98
DDD reductions with OND (all four variants (LL, TT, AG, AC)): more than 4 DDD
Least Squares Mean Difference, Drinks per Drinking Days, OND vs. Placebo (model RS17614942 (CC, AC/AA)): −1.20
Least Squares Mean Difference, Drinks per Drinking Days, OND vs. Placebo (model RS17614942 (CC/AA, AC)): −1.30
Drinks per Drinking Days, Least Squares Estimated Mean Difference (among AC/AA: OND vs. Placebo, model RS17614942): −2.04
Drinks per Drinking Days, Least Squares Estimated Mean Difference (among AC/AA: OND vs. Placebo, model RS17614942 and 5-HTTLPR): −2.13
Drinks per Drinking Days, Least Squares Estimated Mean Difference (among CT/TT: OND vs. Placebo, model RS4938056 and 5-HTTLPR): −0.81
Drinks per Drinking Days, Least Squares Estimated Mean Difference (among LL: OND vs. Placebo, model 5-HTTLPR and RS1062613): −1.29
Drinks per Drinking Days, Least Squares Estimated Mean Difference (among LL: OND vs. Placebo, model 5-HTTLPR and RS1150226): −1.47
Drinks per Drinking Days, Least Squares Estimated Mean Difference (among LL: OND vs. Placebo, model RS17614942 and 5-HTTLPR): −1.86
Drinks per Drinking Days, Least Squares Estimated Mean Difference (among OND: AC/AA vs. CC, model RS17614942): −1.60
Drinks per Drinking Days, Least Squares Estimated Mean Difference (among OND: AC/AA vs. CC, model RS17614942 and 5-HTTLPR): −1.45
Drinks per Drinking Days, Least Squares Estimated Mean Difference (among OND: AG/AA vs. GG, model 5-HTTLPR and RS1150226): −1.25
Drinks per Drinking Days, Least Squares Estimated Mean Difference (among OND: AG/AA vs. GG, model RS1150226): −1.47
Drinks per Drinking Days, Least Squares Estimated Mean Difference (among OND: CT/TT vs. CC, model RS4938056): −1.24
Drinks per Drinking Days, Least Squares Estimated Mean Difference (among OND: CT/TT vs. CC, model RS4938056 and 5-HTTLPR): −1.13
Drinks per Drinking Days, Least Squares Estimated Mean Difference (among OND: LL + CT/TT vs. Others, simplified model): −1.64
Drinks per Drinking Days, Least Squares Estimated Mean Difference (among OND: LL vs. LS/SS, model 5-HTTLPR and RS1062613): −1.39
Drinks per Drinking Days, Least Squares Estimated Mean Difference (among OND: LL vs. LS/SS, model 5-HTTLPR and RS1150226): −1.27
Drinks per Drinking Days, Least Squares Estimated Mean Difference (among OND: LL vs. LS/SS, model RS4938056 and 5-HTTLPR): −1.37
Drinks per Drinking Days, Least Squares Estimated Mean Difference (among OND: LL vs. LS/SS, model RS17614942 and 5-HTTLPR): −1.33
Drinks per Drinking Days, Least Squares Estimated Mean Difference (among OND: TC/CC vs. TT, model 5-HTTLPR and RS1062613): −1.05
Drinks per Drinking Days, Least Squares Estimated Mean Difference (among OND: TC/CC vs. TT, model RS1062613): −1.06
Drinks per Drinking Days, Least Squares Estimated Mean Difference (among TC/CC: OND vs. Placebo, model 5-HTTLPR and RS1062613): −1.10
Drinks per Drinking Days, Least Squares Estimated Mean Difference (among TC/CC: OND vs. Placebo, model RS1062613): −0.90
DDD reduction, OND compared to placebo (any one of three variants: 5-HTTLPR [LL], RS1150226 [AG], RS17614942 [AC]): at least 1.4 DDD
DDD reduction, OND compared to placebo (any two of the three variants (LL, AG, AC)): at least 2.4 DDD
DDD reductions with OND (any two of three variants: 5-HTTLPR (LL), RS1042173 (TT), RS1176713 (GG)): at least 2 DDD
DDD reductions with OND (either 5-HTTLPR (LL) or RS1176713 (GG)): at least 1.4 DDD
DDD reductions with OND (either one or two or three or four of the four variants (LL, TT, AG, AC)): at least 0.9 DDD
DDD reductions with OND (either three of the four variants (LL, TT, AG, AC)): more than 2 DDD
DDD reductions with OND (either two of four variants: 5-HTTLPR (LL), RS1042173 (TT), RS1150226 (AG), RS17614942 (AC)): at least 2 DDD
DDD reductions, OND compared to placebo (one or two of the three variants (LL, AG, AC)): about 1.4 DDD
Response to Ondansetron treatment (one or two or three of 5-HTTLPR [LL], RS1150226 [AG], RS17614942 [AC], 120 patients): seemed to respond
DDD reductions, OND compared to placebo (one or two or three of the three variants (LL, AG, AC)): at least 1.4 DDD
Response to OND treatment (one or two or three or four of 5-HTTLPR (LL), RS1042173 (TT), RS1176719 (AA), RS17614942 (AC)): likely to respond
DDD reductions with OND (one, or two or three of the three variants (LL, TT, RS1176713 GG)): at least 0.9 DDD
DDD reduction, OND compared with placebo groups (patients who had LL+TT or RS17614942 (AC) or RS1150226 (AG), 84 of 273 patients): at least 1.75 DDD
Estimate, OND vs. Placebo, drinks per drinking days (DDD) (patients with 5-HTTLPR (LL)): −1.41 DDD
DDD reductions, OND compared to placebo (patients with either 5-HTTLPR (LL) or RS1150226 (AG) or RS17614942 (AC)): at least 1.4 DDD
Log mean Drinks/Drinking Day (printed 'TT/GG and group' (rs1042173)): 1.68±0.07 Drinks/Drinking Day
Estimated mean DDD difference for OND vs. placebo (regardless of rs17614942 genotypes, 5HT3b cohort): −1.15
Log mean difference in Drinks/Drinking Day, TTond vs TG/GG ond (rs1042173, among ondansetron recipients, 95% CI -0.53 to -0.13, p=0.002): −0.33
Reducing severe drinking vs placebo (Log Drinks/Drinking day, mixed model) (rs1042173 TT genotype, ondansetron 4 mcg/kg, p=0.028): more beneficial than placebo
Log mean Drinks/Drinking Day (rs1042173 TT group that received ondansetron 4 mcg/kg): 1.36±0.10 Drinks/Drinking Day
Reduction of DDD by ondansetron, C-carriers compared with TT subjects (rs1062613 (5HT3a)): 1.17 sd
Reduction of DDD by ondansetron, AG/AA compared to GG subjects (rs1150226 (5HT3a)): 1.74 sd
Reduction of DDD by ondansetron, T-carriers compared with CC subjects (rs4938056 (5HT3b)): 1.30 sd
Reduction in DDD, AC/AA treated with ondansetron compared to CC subjects (rs17614942 (5HT3b)): 1.97 sd
Least Squares Mean Difference, Drinks per Drinking Days, AG/AA vs. GG (second AG/AA vs. GG line printed under Among OND, RS1150226): −0.98
DDD reduction, OND compared to placebo (the three variants (LL, AG, AC)): at least 4 DDD
DDD reductions with OND (the three variants (LL, TT, RS1176713 GG)): at least 7 DDD
Reduction of DDD by ondansetron compared to the placebo (within AC/AA group of rs17614942): 2.41 sd
Reduction of DDD by ondansetron compared to the placebo (within AG/AA group of rs1150226): 1.57 sd
Least square Mean difference in DDD, ondansetron vs placebo (within LL+AC/AA group (5HTTLPR + rs17614942)): 3.6 sd
Least square Mean difference in DDD, ondansetron vs placebo (within LL+CT/TT group (5HTTLPR + rs4938056)): 1.74 sd
